Results reported in patent US20230190924A1, “ANTIGEN OF ALLERGY AND EPITOPE THEREOF” (HOYU CO., LTD., priority 2017, published 2023).

System: IgE antibodies from patients
Test: Epitope mapping (2) overlapping (10-amino-acid peptides) and (3) alanine scanning on peptide arrays
Type: binding, human
Conditions: overlapping peptides with flanking sequence
Description: On the basis of the sequences (SEQ ID NOs: 272-295 for vitellogenin-2 precursor, SEQ ID NOs: 296-303 for vitellogenin-3, SEQ ID NOs: 304-311 for apolipoprotein B precursor, and SEQ ID NOs: 312-318 for vitellogenin-1 or lipovitellin-1) of the peptides bound to an IgE antibody in serum in a patient-specific manner as described above in (A), a library of overlapping peptide fragments (length: 10 amino acids) was prepared using the sequences of the peptides and sequences in which sequences were added so as to flank each peptide in the amino acid sequences of allergen components (amino acid sequences of SEQ ID NO: 59, 106 or 262 for vitellogenin-2 precursor, SEQ ID NO: 2, 13 or 47 for vitellogenin-3, SEQ ID NO: 152, 237 or 251 for apolipoprotein B, and SEQ ID NO: 18 for vitellogenin-1 or lipovitellin-1) comprising the sequences of the peptide to carry out epitope mapping.
The peptides to be synthesized were shifted by one amino acid.
The library was prepared by the same procedure as described above in (A), and the presence or absence of binding of an IgE antibody present in the serum of a patient and a non-egg-allergic subject to each peptide fragment was measured by the same technique as described above. Amino acids at positions where the binding activity against IgE antibodies from patients were lost or decreased in the peptides shifted by one amino acid while binding activity against IgE antibodies from non-egg-allergic subjects arose were confirmed as amino acids adversely affecting the specificity of binding to IgE antibodies.
Chemiluminescence intensity in images obtained by measurement was converted into a numeric value in the same manner as in (A) using ImageQuant TL (GE Healthcare). Numeric values determined from images obtained as a result of using only anti-human IgE antibody-HRP antibody without carrying out the procedures (2) and (3) described above in the subsection titled (3) Spotting of cellulose-bound peptide solution were […] numeric values determined from images obtained from results about the serum of 6 patients. It was determined that a peptide having the resulting value larger than 0 had no binding activity against IgE antibodies when having less than 20% of values obtained using the sequences (amino acid sequences of SEQ ID NO: 59, 106 or 262 for vitellogenin-2, SEQ ID NO: 2, 13 or 47 for vitellogenin-3, SEQ ID NO: 152, 237 or 251 for apolipoprotein B, and SEQ ID NO: 18 for vitellogenin-1 or lipovitellin-1) serving as the basis of overlapping, had binding activity, albeit poor, against IgE antibodies when having 20% or more and less than 50% thereof, had binding activity, albeit somewhat poor, against IgE antibodies when having 50% or more and less than 70% thereof, had almost equivalent binding activity against IgE antibodies when having 70% or more and less than 90% thereof, and had equivalent or good binding activity against IgE antibodies and thus had remaining binding activity against IgE antibodies when having 90% or more thereof.
From the amino acid sequences identified above in (A), a library of peptide fragments in which N-terminal amino acids were substituted one by one by alanine according to a technique called alanine scanning (Non Patent Literature 1) was prepared by the same technique as described above. The presence or absence of binding of an IgE antibody present in the serum of a patient and a non-egg-allergic subject to each peptide fragment was measured by the same technique as described above. Amino acids at positions where the binding activity against IgE antibodies from patients were lost or decreased by the substitution by alanine while binding activity against IgE antibodies from non-egg-allergic subjects arose were confirmed as amino acids important for exertion of original antigenicity, or amino acids influencing exertion of original antigenicity.

binding to IgE antibodies from patients, sequence comprising a region amino-terminally adjacent to the epitope	binding to IgE antibodies from patients, sequence comprising a region carboxy-terminally adjacent to the epitope	Substance
binding to IgE antibodies from patients		SEQ ID NO: 359: sequence comprising a region amino-terminally adjacent to epitope 6 (VVNSPRTMF; epitiope)
	binding to IgE antibodies from patients	SEQ ID NO: 360: sequence comprising a region carboxy-terminally adjacent to epitope 6 (PSAIISKLMA; epitope)
binding to IgE antibodies from patients		SEQ ID NO: 363: sequence comprising a region amino-terminally adjacent to epitope 6 (VVNSPRT; epitope)
	binding to IgE antibodies from patients	SEQ ID NO: 375: sequence comprising a region carboxy-terminally adjacent to epitope 7 (SAGSVADLVE; epitope)
binding to IgE antibodies from patients		SEQ ID NO: 377: sequence comprising a region amino-terminally adjacent to epitope 8 (IKELGKALQG; epitope)
	binding to IgE antibodies from patients	SEQ ID NO: 380: sequence comprising a region carboxy-terminally adjacent to epitope 8 (ELPTETPLVS; epitope)
	binding to IgE antibodies from patients	SEQ ID NO: 381: sequence comprising a region carboxy-terminally adjacent to epitope 8 (LPTETPLVS; epitope)
binding to IgE antibodies from patients		SEQ ID NO: 384: sequence comprising a region amino-terminally adjacent to epitope 8 (IKELGKALQG; epitope)
binding to IgE antibodies from patients		SEQ ID NO: 385: sequence comprising a region amino-terminally adjacent to epitope 8 (ELGKALQGWK; epitope)
	binding to IgE antibodies from patients	SEQ ID NO: 393: sequence comprising a region carboxy-terminally adjacent to epitope 8 (LPTETPLV; epitope)
	binding to IgE antibodies from patients	SEQ ID NO: 401: sequence comprising a region carboxy-terminally adjacent to epitope 8 (LPTETPLVS; epitope)
	binding to IgE antibodies from patients	SEQ ID NO: 402: sequence comprising a region carboxy-terminally adjacent to epitope 8 (LPTETPLVSA; epitope)
binding to IgE antibodies from patients		SEQ ID NO: 404: sequence comprising a region amino-terminally adjacent to epitope 9 (EVAFININKE; epitope)
binding to IgE antibodies from patients		SEQ ID NO: 409: sequence comprising a region amino-terminally adjacent to epitope 10 (LQQVMKTVVE; epitope)
binding to IgE antibodies from patients		SEQ ID NO: 422: sequence comprising a region amino-terminally adjacent to epitope 11 (PMKFDAKIDV; epitope)
	binding to IgE antibodies from patients	SEQ ID NO: 426: sequence comprising a region carboxy-terminally adjacent to epitope 11 (LKNLKIETNP; epitope)

Same assay, conditions: procedures (B) overlapping and (C) alanine scanning

region within the epitope important for binding to IgE antibodies from patients	Substance
important for binding	SEQ ID NO: 366: region in epitope 6 (SPRTMFPSAI; epitope)
important for binding	SEQ ID NO: 369: region in epitope 6 (TMFPSAIISK; epitope)
important for binding	SEQ ID NO: 374: region in epitope 7 (ISKLMANSA; epitope)
important for binding	SEQ ID NO: 379: region in epitope 8 (KALQGWKELP; epitope)
important for binding	SEQ ID NO: 388: region in epitope 8 (KALQGWKEL; epitope)
important for binding	SEQ ID NO: 391: region in epitope 8 (GWKELPTET; epitope)
important for binding	SEQ ID NO: 392: region in epitope 8 (GWKELPTETP; epitope)
important for binding	SEQ ID NO: 397: region in epitope 8 (KALQGWKELP; epitope)
important for binding	SEQ ID NO: 400: region in epitope 8 (GWKELPTETP; epitope)
important for binding	SEQ ID NO: 407: region in epitope 9 (ELLQQ; epitope)
important for binding	SEQ ID NO: 412: region in epitope 10 (MKTVVEPA; epitope)
important for binding	SEQ ID NO: 414: region in epitope 10 (ADRNA; epitope)
important for binding	SEQ ID NO: 419: region in epitope 11 (DVKLKNLK; epitope)
important for binding	SEQ ID NO: 425: region in epitope 11 (DVKLKNLKI; epitope)
important for binding	SEQ ID NO: 430: region in epitope 14 (PSKKGNTVLA; epitope)
important for binding	SEQ ID NO: 434: region in epitope 15 (SSSSSNSKS; epitope)
important for binding	SEQ ID NO: 436: region in epitope 15 (SSSNSKSSSS; epitope)
important for binding	SEQ ID NO: 440: region in epitope 15 (SSNSKSS; epitope)
important for binding	SEQ ID NO: 444: region in epitope 16 (QEFPKRKLPG; epitope)
important for binding	SEQ ID NO: 446: region in epitope 16 (PKRKLPGDRA; epitope)
